“Also recorded” adds a separate entry of the source. Like-named read-outs stand apart in the source and are kept apart here.
Tests used:
[1] = tested on: L1210 leukemia; assay: Prolongation effects of life span against L1210-bearing mice; type: in vivo, BDF1 mice; conditions: for 30 days survivor / ILS(%) / Survival days MST / B.W. Change: i.p., days 1, 3, 5; for B.W. Change: day 1 to day 5
Protocol: Antitumor activities were measured through the experiments on prolongation effects of life span against L1210-bearing mice and tumor growth inhibitory effects against B16-bearing mice. To evaluate the antitumor activities on L1210 leukemia, a certain number of L1210 cells (in vitro) was intraperitoneally inoculated for propagation and the L1210 cells in ascites were harvested from animals sacrificed by cervical dislocation on 7th day after tumor was implanted.
(§1) Male BDF1 mice, weighing about 20 grams, were used. Animal rooms were controlled at 23±2° C. and 60±5% relative humidity, under HEPA filter, and maintained in specific pathogen free (SPF).
5×10^5 of L1210 leukemia cell, obtained in vitro form, were intraperitoneally inoculated in BDF1 mice for propagation. The L1210 tumor cells in ascites were aseptically harvested from BDF1 mice sacrificed by cervical dislocation on 7th day after tumor implantation.
The tumor cells were passaged at least three times prior to use in the test.
5×10^5 cell were intraperitoneally inoculated into BDF1 mice on day 0 and the sample ([…]) were intraperitoneally administration on days 1, 3 and 5. six mice were used for each experimental group.
Antitumor activities were evaluated by the mean survival time of a group of mice and also expressed by the ILS(%) value and the mean animal weights for day 1 and day 5.
Increased Life span (ILS)
ILS(%)={(MST of sample treated group/MST of solvent group)-1}×100

[2] = tested on: B16 melanoma; type: in vivo, BDF1 mice; conditions: for IR (%) on tumor size / IR (%) on tumor weight / Tumor weight day 20 / Tumor size day 8 / Tumor size day 12 / Tumor size day 16 / Tumor size day 20: days 8, 12, 16; for IR (%) on tumor size / IR (%) on tumor weight: day 20; for Tumor weight day 20: in g (unit assumed); for Tumor size day 8 / Tumor size day 12 / Tumor size day 16 / Tumor size day 20: in mm³ (unit assumed)
Protocol: To investigate tumor growth inhibitory effects against B16 melanoma, a certain number of B16 cells(in vitro) was subcutaneously inoculated for propagation and tumor cells were resected from animals scrificed by cervical dislocation on 14th day after tumor was implanted.
as §1
10^6 of B16 melanoma cell, obtained in vitro form, were subcutaneously in BDF1 mice for propagation. The B16 melanomas were transfered on day 14. The fresh tumors except for necrotized center were aseptically resected from tumor-bearing mice sacrificed by cervical dislocation.
The tumor cells were passaged at least […] three times prior to use in the test.
1 g subcutaneously donor tumor to be subcutaneously was homogenized in cold sterilized saline to give a final concentration of 1 g/10 ml. The 1:10 tumor suspension is injected into all BDF1 mice subcutaneously using 0.2 ml/mouse.
The mice were subcutaneously implanted with such homogenized solution and 7 to 8th day after the tumor implantation, the mice having a certain size of tumors were selected for experiments. Each experimental group were administered with the sample (0.1 ml/10 g) on 8th, 12th and 16th day after the inoculation of tumor. Eight mice were used for each experimental group.
The size of the tumors was calculated by direct measurement of the diameter of the tumors, using the formula.
Where b is the largest diameter and a is the diameter perpendicular to b and growth curves were thus obtained. (FIG. 2)
The inhibition rate of tumor growth on the basis of tumor size was calculated according to the formula.
TWt is the mean tumor volume(weight) of sample-treated groups.
TWc is the mean tumor volume(weight) of control group.

[3] = background art; cited from earlier work
[4] = tested on: topoisomerase I; conditions: background art; cited from earlier work

## CCC1(O)C(=O)OCc2c1cc1n(c2=O)Cc2c-1nc1ccccc1c2CCN(Cc1ccccc1)C(=O)OCc1ccccc1 (racemic) [Example 18, dl-7-[2-(N-benzyl-N-carbobenzyloxyamino)ethyl]camptothecin]
[1]; total dose 10 mg/kg
  30 days survivor: 0/6
  ILS(%): 33%
  Survival days MST: 13.00 days
  B.W. Change: -0.25 g
[1]; total dose 50 mg/kg
  30 days survivor: 0/6
  ILS(%): 64%
  Survival days MST: 16.00 days
  B.W. Change: -0.80 g

## CCC1(O)C(=O)OCc2c1cc1n(c2=O)Cc2c-1nc1ccccc1c2CCNCc1ccccc1 (racemic) [Example 26, dl-7-[2-(N-benzylamino)ethyl]camptothecin]
[1]; total dose 10 mg/kg
  30 days survivor: 0/6
  ILS(%): 72%
  Survival days MST: 15.67 days
  B.W. Change: -0.09 g
[1]; total dose 50 mg/kg
  30 days survivor: 0/6
  ILS(%): 75%
  Survival days MST: 16.00 days
  B.W. Change: -0.57 g

## CCC1(O)C(=O)OCc2c1cc1n(c2=O)Cc2c-1nc1ccccc1c2CCNC(C)C (racemic) [Example 30, dl-7-[2-(N-isopropylamino)ethyl]camptothecin]
[1]; compared with other compounds / camptothecin (FIG. 1)
  ILS(%) and dose range, comparison in words: better dose dependency and ILS(%) than other compound; also recorded: higher ILS(%) and wider range where the effect was siginificant
[1]; total dose 8.75 mg/kg
  30 days survivor: 0/6
  ILS(%): 58.7%
  Survival days MST: 15.67 days
  B.W. Change: +0.7 g
[1]; total dose 10 mg/kg
  30 days survivor: 0/6
  ILS(%): 42%
  Survival days MST: 13.00 days
  B.W. Change: -0.71 g
[1]; total dose 17.5 mg/kg
  30 days survivor: 0/6
  Survival days MST: 17.75 days
  B.W. Change: +0.45 g
[1]; total dose 35 mg/kg
  30 days survivor: 0/6
  ILS(%): 92.4%
  Survival days MST: 19.00 days
  B.W. Change: -0.12 g
[1]; total dose 50 mg/kg
  30 days survivor: 0/6
  ILS(%): 119%
  Survival days MST: 20.00 days
  B.W. Change: -0.57 g
[1]; total dose 70 mg/kg
  30 days survivor: 0/6
  ILS(%): 143%
  Survival days MST: 24.00 days
  B.W. Change: -0.79 g
[1]; total dose 140 mg/kg
  30 days survivor: 0/6
  ILS(%): 110%
  Survival days MST: 20.75 days
  B.W. Change: -0.93 g
[2]; 35 mg/kg
  IR (%) on tumor size: 27%
  IR (%) on tumor weight: 40%
  Tumor weight day 20: 2.34 ± 0.44
  Tumor size day 8: 86.93 ± 11.34
  Tumor size day 12: 411.88 ± 71.52
  Tumor size day 16: 1234.65 ± 182.64
  Tumor size day 20: 3061.34 ± 752.34
[2]; 70 mg/kg
  IR (%) on tumor size: 54.8%
  IR (%) on tumor weight: 56%
  Tumor weight day 20: 1.71 ± 0.18
  Tumor size day 8: 86.21
  Tumor size day 12: 320.06
  Tumor size day 16: 870.46
  Tumor size day 20: 1897.88
[2]; 140 mg/kg
  IR (%) on tumor size: 67.72%
  IR (%) on tumor weight: 71.6%
  Tumor weight day 20: 1.11 ± 0.21
  Tumor size day 8: 86.94 ± 9.34
  Tumor size day 12: 328.98 ± 76.57
  Tumor size day 16: 695.75 ± 82.77
  Tumor size day 20: 1353.91 ± 134.36
[2]; ascites and solid type tumor, compared with camptothecin
  antitumor activity, comparison in words: better antitumor activity on ascites tumor and solid type tumor
[2]; mouse, in vivo
  toxicity and safety margin, comparison in words: less toxicity and a wide range of safety margin

## CCc1c2c(nc3ccc(OC(=O)N4CCC(N5CCCCC5)CC4)cc13)-c1cc3c(c(=O)n1C2)COC(=O)[C@]3(O)CC [CPT-11]
[3]
  antineoplastic activity in clinical trial / treatment: excellent antineoplastic activities

## CC[C@@]1(O)C(=O)OCc2c1cc1n(c2=O)Cc2cc3ccccc3nc2-1 [Camptothecin, camptothecin]
[3]
  toxicity in clinical trial: severe toxicity
[4]
  mode of action on topoisomerase I: specific mode of action to inhibit topoisomerase I; also recorded: binds covalently with topoisomerase I
[2]; 10 mg/kg
  IR (%) on tumor size: 57.8%
  IR (%) on tumor weight: 59%
  Tumor weight day 20: 1.61 ± 0.30
  Tumor size day 8: 85.95 ± 13.15
  Tumor size day 12: 458.56 ± 53.87
  Tumor size day 16: 1035.98 ± 129.36
  Tumor size day 20: 1775.50 ± 300.91

Reference: patent US6265413A, “Camptothecin compounds and a method of preparation thereof” (priority 1995, dated 2001)
